How the values were obtained:
Assay type in all cases: cell-based
Hep G2 = test: killing of cultured cells, Hep G2; design: key to cells killed by treatment: “+” indicates that the cells were killed by treatment; “−” indicates that they were not; “+/−” indicates a slow marginal response seen only in a few special cases with fibroblasts experimentally transformed by introduction of the ras oncogene
Text: (§1) Table 1: Summarized are the responses of cells in culture to killing by example members of the family of blocked lipoate derivatives that are the object of this invention as well as one control compound (dihydroxyoctanoic acid). At right is indicated the specific cell line followed by the tissue of origin of the cell line. Across the top are listed the specific compounds tested. Each blocked lipoate derivative was used at two to fourfold above its threshold killing concentration. [These concentrations range form 0.15 mM (60 ug/ml or 60 mg/kg) to 2.5 mM (800 ug/ml or 800 mg/kg) (see EXAMPLE 11).] […] “+/−” indicates a slow marginal response seen only in a few special cases with fibroblasts experimentally transformed by introduction of the ras oncogene (EXAMPLE 10).
(§2) First, each cell type to be tested was plated at low densities in the wells of a standard 6×24 well tissue culture plate. (Multiple wells are seeded for each cell type.)
(§3) Second, the cells were allowed to grow to moderate densities. Transformed cells are in contact and non-transformed cells are contact-inhibited under these conditions.
(§4) Third, the lipoate derivatives to be tested were added to individual wells. In these experiments each compound was added at two to fourfold above the threshold killing concentration for cancer cells (EXAMPLE 11).
(§5) Fourth, cells were monitored over the next several days.

LnCap (Prostate) = test: killing of cultured cells, LnCap; design: key: “+” indicates that the cells were killed by treatment; “−” indicates that they were not; “+/−” indicates a slow marginal response seen only in a few special cases with fibroblasts experimentally transformed by introduction of the ras oncogene; conditions: compound at two to fourfold above its threshold killing concentration
Text: as §1, §2, §3, §4, §5

HeLa cells = test: killing of HeLa cells with or without dichloroacetate (DCA); conditions: compound ca. twofold above threshold killing dose plus 5 mM DCA
Experimental: HeLa cells were plated at moderate densities and allowed to attach and grow for ca. 24 hours in a series of wells in a multi-well tissue culture plate. To individual wells of the first subset (control) were added bis-acetyl lipoate, mono-acetyl lipoate or bis-benzoyl lipoate—each at ca. twofold above the threshold killing dose (EXAMPLE 11). To an equivalent (experimental) subset of wells were added these same compounds at the same dose together with the simultaneous addition of DCA to 5 mM final concentration.

cancer cells in culture = test: threshold killing concentration and dose response in cultured cells
Text: First, each compound killed cancer cells in culture at or above a relatively narrow, specific concentration range, but not below. The threshold concentrations given below represent the approximate center of this range which extended roughly two to threefold. […] Below these saturation ranges, sensitive cells survived and grew. They could be removed and replated to grow, apparently indefinitely, under these conditions. […] This was a highly unusual dose/response profile. The threshold killing concentrations (ranges) varied between individual compounds. Examples of these threshold killing concentrations were as follows: bis-benzoyl lipoate (EXAMPLE 3) 60 mg/liter (60 mg/kg), monoacetyl lipoate (EXAMPLE 4) 100 mg/liter (100 mg/kg); bis-acetyl lipoate (EXAMPLE 2) 600 mg/liter (600 mg/kg).
These changes were ultimately followed by cell death if treatment was continued. However, these morphological changes were reversed, and the cells recovered, if the lipoate derivative was removed during this initial exposure. As with the dose/response profile of the preceeding paragraph, this reversible induction of morphological change followed by commitment to cell death is highly idiosyncratic. The discovery that this behavior was shown by all tested members of the class of compounds that are the object of this invention was, again, very strong evidence that these compounds are, in fact, a functionally coherent class.

[1] = test system: HeLa (cervical cancer) cells; test: TUNEL assay for apoptosis; conditions: ca. 20-24 hours, ca. twofold above threshold killing concentration
Text: In order to understand the experiment described in this Example is necessary to review details concerning the specific assay used in the experiments. Nuclear DNA of cells is normally present in the very long molecules making up chromosomes. These very long polymer molecules have only extremely rare free ends. In contrast, after the induction of apoptosis the cell begins to destroy itself and, in the process, introduces an extremely large number of breaks in its DNA in the process of reducing it to its small monomer constituents. The appropriate enzyme —terminal transferase—will add nucleotides to the free ends of DNA molecules. Moreover, this enzyme will use monomers (nucleotides) for this addition reaction that have highly fluorescent groups added to them. Thus, if the nuclei of normal cells—with few free DNA ends—are exposed to terminal transferase and fluorescent monomers very little fluorescence is added to these nuclei. In contrast, when these components are added to the nuclei of cells undergoing apoptosis and very large number of fluorescent monomers are added—to the very many DNA ends that are present—resulting in a massive introduction of fluorescence. The conventional assay based on these properties is referred by the acronym TUNEL. […] HeLa cancerous cells were plated in several wells in a tissue culture dish. […]

Saos 2 (Bone) = test: killing of cultured cells, Saos 2; design: key: “+” indicates that the cells were killed by treatment; “−” indicates that they were not; “+/−” indicates a slow marginal response seen only in a few special cases with fibroblasts experimentally transformed by introduction of the ras oncogene; conditions: compound at two to fourfold above its threshold killing concentration
Text: as §1, §2, §3, §4, §5

## O=C(O)CCCCC(CCSC(=O)c1ccccc1)SC(=O)c1ccccc1 (centres unmarked) [bis-benzoyl lipoate, 6,8-bisbenzoylmercaptooctanoic acid]
Hep G2; 120 ug/ml, ca. 48 hours
  cell killing, liver cancer cells (FIG. 1): efficiently killed
Hep G2; Hep G2, compound at two to fourfold above its threshold killing concentration
  cells killed by treatment: +
LnCap (Prostate)
  cells killed by treatment: +
HeLa cells
  speed of cell killing with DCA relative to compound alone: approximately twvice as rapidly
Cancer cells in culture
  effective dose in cell culture: 60 µg/mL
Cancer cells in culture; approximate center of a range extending two to threefold
  threshold killing concentration: 60 mg/L
[1]
  induction of apoptosis (TUNEL): induces apoptosis
Saos 2 (Bone)
  cells killed by treatment: +
